In one data set the test system is E. Coli Mach1-T1®. As to the kind of experiment: MIC of 3-HP, microaerobic, 96-well, MOPS minimal media (Examples 2 and 4). The format is cell-based, Escherichia coli. As to conditions: supplement added to MOPS minimal media, 24 hours.
Data set [1] concerns Yeast strains, S288 C background. As to the kind of experiment: Yeast anaerobic MIC evaluation (Tables 14 and 16). The data set is classed as cell-based, Saccharomyces cerevisiae. The settings on record: for MIC: Saccharomyces cerevisiae, read-out: Average MIC Assay Result (g/L 3-HP). As for the experimental part:
The minimum inhibitory concentration (MIC) was determined anaerobically in a 96 well-plate format. […] A 1% (v/v) inoculum was introduced into a 5 ml culture of SD minimal media without vitamins. After the cells reached mid-exponential phase, the culture was diluted to an OD600 of 0.200. The cells were further diluted 1:5 and a 10 μL aliquot was used to inoculate each well of a 96 well plate (˜10^4 cells per well) to total volume of 100 uL. […] Plates were incubated for 72 hours at 30 C. […] Plates were sealed in biobag anaerobic chambers that contained gas generators for anaerobic conditions and incubated for 72 hours at 30 C.

Data set [2] has the same test system. As to the kind of experiment: Yeast aerobic MIC evaluation (Tables 13 and 15). The data set is classed as cell-based. As to conditions: Saccharomyces cerevisiae, read-out: Average MIC Assay Result (g/L 3-HP), S288C, SD media, aerobic, MIC of 3-HP with the named supplement (label 3-HP = no supplement).
Procedure: The minimum inhibitory concentration (MIC) was determined aerobically in a 96 well-plate format. […] A 1% (v/v) inoculum was introduced into a 5 ml culture of SD minimal media without vitamins. After the cells reached mid-exponential phase, the culture was diluted to an OD600 of 0.200. The cells were further diluted 1:5 and a 10 μL aliquot was used to inoculate each well of a 96 well plate (˜10^4 cells per well) to total volume of 100 uL. […] Plates were incubated for 72 hours at 30 C.
In a further data set the test system is E. Coli K12. The data set is classed as cell-based, Escherichia coli. The settings on record: E. Coli K12, M9 minimal media, control or supplemented, aerobic, 24 hours.
Data set [3] concerns E. Coli BW25113. The data set can be described thus: MIC evaluation general protocol, E. Coli anaerobic (Tables 7 and 9). The format is cell-based. The settings on record: for MIC: Escherichia coli, read-out: MIC Assay Result (g/L 3-HP); for % Increase Over Control: MIC vs BW25113 in M9 without supplement. The method, then:
The minimum inhibitory concentration (MIC) was determined anerobically in a 96 well-plate format. […] Overnight cultures of strains were grown in triplicate in 5 mL LB (with antibiotic where appropriate). A 1% (v/v) inoculum was introduced into a 5 ml culture of M9 minimal media.
(§1) For the above MIC evaluations, the final results are expressed in chemical agent concentrations determined by analysis of the stock solution by HPLC (i.e., see Subsection Mb).

Data set [4] concerns E. Coli BW25113. The data set can be described thus: MIC evaluation general protocol, E. Coli aerobic (Tables 6 and 8). The data set is classed as cell-based. As to conditions: for average MIC Assay Result (g/L 3-HP): MIC of 3-HP for strain BW25113 in M9 media with the named supplement(s); for % Increase Over Control: increase of 3-HP MIC vs BW25113 in M9 without supplement. As for the experimental part:
The minimum inhibitory concentration (MIC) was determined aerobically in a 96 well-plate format. […] Overnight cultures of strains were grown in triplicate in 5 mL LB (with antibiotic where appropriate). A 1% (v/v) inoculum was introduced into a 5 ml culture of M9 minimal media.
as §1

In the next data set the test system is MACH1™-T1® E. Coli. As to the kind of experiment: IroK expression study, microaerobic MIC, MOPS minimal media, 1 mM IPTG. As to conditions: IroK expressed from pKK223-3; data not shown. The format is cell-based. The method, then:
The two oligonucleotides were added in a 1:1 ratio and annealed according to standard methodology in a thermal cycler. Ligation of the annealed primer product with the pKK223-3 expression vector (SEQ ID NO:008, Pharmacia, Piscataway, N.J.) was performed with T4 Ligase (Invitrogen, Carlsbad, Calif.) and incubated at 25° C. overnight. The ligation product was then electroporated into competent MACH1™-T1®, plated on LB+ampicillan, and incubated at 37° C. for 24 hours. Plasmids were isolated and confirmed by purification and subsequent restriction digest and sequencing (Macrogen, Rockville, Md.). MICs were then determined corresponding to 1 mM IPTG induction.
The minimum inhibitory concentration (MIC) was determined microaerobically in a 96 well-plate format. Overnight cultures of strains were grown in 5 mL LB (with antibiotic where appropriate). A 1% (v/v) inoculum was introduced into a 15 ml culture of MOPS minimal media. After the cells reached mid-exponential phase, the culture was diluted to an OD600 of 0.200. The cells were further diluted 1:20 and a 10 μL aliquot was used to inoculate each well of a 96 well plate (˜10^4 cells per well).

Data set [5] is described as follows: Preparation of neutralized 3-HP stock solution (observation at neutral pH). The data set is classed as physicochemical. The settings on record: pH 7, aqueous buffer. From the text:
3-HP was obtained from TCI America (Portland, Oreg.). Significant acrylic acid and 2-oxydipropionic contamination was observed via HPLC analysis. Samples were subsequently treated by diethyl ether extraction to remove acrylic acid and a portion of the 2-oxydipropionic contaminants. Samples were then neutralized with 10 M NaOH to a final pH of 7.0. […] The working stock solution was used for the selection and MIC evaluations in this example.
3-HP was obtained from TCI America (Portland, Oreg.). Significant acrylic acid and 2-oxydipropionic contamination was observed via HPLC analysis. Samples were subsequently treated by diethyl ether extraction to remove acrylic acid and a portion of the 2-oxydipropionic contaminants. Samples were then neutralized with 10 M NaOH to a final pH of 7.0. […] The working stock solution was used for the selection, growth rates and MIC evaluations in this example.

For a further data set, the system named is B. subtilis. The data set can be described thus: MIC evaluation general protocol, B. subtilis aerobic (Table 11). The data set is classed as cell-based, Bacillus subtilis. As to conditions: B. subtilis 168, M9 + glu + trp, growth with 3-HP and the named supplement (label 3-HP = no supplement).
Where [6] appears, read: BW25113, M9 with supplements at Table 3 levels (or EZ Rich), anaerobic, 24 hours.

The values that follow come from patent publication US20120264902A1 (The Regents of the University of Colorado, a body corporate, priority 2011, published 2012).

Values after ≈ are worked out from the molar mass of the structure shown. Read-outs that look alike come from different tables or passages of the source. A value given as a limit tells only on which side of the number the result lay.

Procedure for B. subtilis: The minimum inhibitory concentration (MIC) was determined aerobically in a 96 well-plate format. […] Overnight cultures of strains were grown in triplicate in 5 mL LB (with antibiotic where appropriate). A 1% (v/v) inoculum was introduced into a 5 ml culture of M9 minimal media+glutamate.
Procedure for E. Coli K12: Overnight cultures of strains were grown in 5 ml LB (with antibiotic where appropriate) at 37° C. in a shaking incubator. A 1 v/v % was used to inoculate 10 mL of M9 minimal media. After the cells reached mid-exponential phase, the culture was diluted to an OD600 of 0.200. The cells were further diluted 1:20 and a 10 ul aliquot was used to inoculate each well (˜10^4 cells per well). […] The MIC endpoint is the lowest concentration of compound at which there was no visible growth.

Regarding `Nc1ccc(C(=O)O)cc1` [p-aminobenzoate], the “MIC increases (3-HP) with supplementation” value (“MIC increases (3-HP)” below) with E. Coli Mach1-T1® was found to be 7%. For `NC(=O)NCCC[C@H](N)C(=O)O` [Citrulline (C)], the figures for the MIC in [1] and in data set [2] were 97 g/L (≈ 554 mM) and 58 g/L, respectively. For `CCC(=O)C(=O)O` [2-oxobutyrate], the “MIC increases (3-HP)” value in the data set on E. Coli Mach1-T1® is 7%. In the case of `O=C([O-])O.[Na+]` [Bicarbonate, sodium bicarbonate], the “Minimum inhibitory concentration (MIC) of 3-HP” value in the data set with E. Coli K12 was 30 mg/mL. As for `O=C(O)c1cccc(O)c1O` [Dihydroxybenzoate, 2,3-dihydroxybenzoic acid], the MIC in the data set on E. Coli BW25113 [3] (setting [6]) is 40 g/L (≈ 260 mM). Also, the “% Increase Over Control” value in the data set on E. Coli BW25113 [3] (anaerobic) worked out at 33%. For the same compound, in the data set with E. Coli BW25113 [4], the “average MIC Assay Result (g/L 3-HP)” value came out at 35 g/L 3-HP and the “% Increase Over Control” value was found to be 27%. Further, the “MIC increases (3-HP)” value with E. Coli Mach1-T1® stood at 33%. Regarding `CC(O)C(=O)O` (stereo not drawn) [lactic], in the data set with MACH1™-T1® E. Coli, the “MICs of other organic acids with IroK expression” value (from here on “MICs of other organic acids”) is recorded as “unchanged”. For the compound `C[C@@H](O)[C@H](N)C(=O)O` [Threonine], the “MIC increases (3-HP)” value in the data set with E. Coli Mach1-T1® came to 3%. Turning to `CSCC[C@H](N)C(=O)O` [Methionine], the MIC in the data set with E. Coli BW25113 [3] (setting [6]) worked out at 42.8 g/L (≈ 287 mM). In addition, the “% Increase Over Control” value in the data set on E. Coli BW25113 [3] (anaerobic) was 43%. Compound `O=C(O)CCO` [Strain 3-HP, 3-hydroxypropionic acid] displayed a solubility in data set [5] of over 35 mg/mL. Moreover, the “Avg 24 hr ΔOD600” value in the data set with B. subtilis came out at 0.04.

On to `O=C(O)C1=C[C@@H](O)[C@@H](O)[C@H](O)C1` [Shikimate (A)], for which the MIC came to 60 g/L (≈ 345 mM) in [1] and 80 g/L in data set [2]. Consider `Cc1ncc(CO)c(CO)c1O.Cl` [pyridoxine hydrochloride], for which, in the data set with E. Coli Mach1-T1®, the “MIC increases (3-HP)” value is 0%.

Regarding `N[C@@H](CCO)C(=O)O` [Homoserine], in the data set with E. Coli BW25113 [3] (setting [6]), the MIC was determined as 30 g/L (≈ 252 mM). Further, the “% Increase Over Control” value in the data set on E. Coli BW25113 [3] (anaerobic) was 0%. Also, the “MIC increases (3-HP)” value with E. Coli Mach1-T1® is reported as 33%. With `NNC(=O)c1ccc(O)cc1` [p-hydroxybenzoic acid hydrazide], in the data set with E. Coli Mach1-T1®, the “MIC increases (3-HP)” value worked out at 33%. For `N[C@@H](CO)C(=O)O` [Serine], the MIC was found to be 32.1 g/L (≈ 305 mM) with E. Coli BW25113 [3] (setting [6]) and 45 g/L (≈ 428 mM) in [1]. `NCCCCNCCCN` [Spermidine]: the MIC with E. Coli BW25113 [3] (setting [6]) was determined as 35 g/L (≈ 241 mM). Moreover, the “% Increase Over Control” value in the data set on E. Coli BW25113 [3] (anaerobic) was determined as 17%.

For Tetrahydrofolate, the “MIC Assay Result (g/L 3-HP)” value against E. Coli BW25113 [3] (setting [6]) was found to be 40.0 g/L. For the same compound, in the data set with E. Coli BW25113 [3] (anaerobic), the “% Increase Over Control” value amounted to 33%. In addition, in the data set on E. Coli BW25113 [4], the “average MIC Assay Result (g/L 3-HP)” value is 30 g/L 3-HP and the “% Increase Over Control” value is 9%. Regarding `NCCCC[C@H](N)C(=O)O` [Lysine], the MIC with E. Coli BW25113 [3] (BW25113, 24 h) came to 41.7 g/L (≈ 285 mM); in data set [1] it was 45 g/L (≈ 308 mM). Take `N[C@@H](Cc1c[nH]c2ccccc12)C(=O)O` [Tryptophan]: the “MIC increases (3-HP)” value with E. Coli Mach1-T1® is listed as 33%.

Turning to `C=CC(=O)O` [acrylic, acrylic acid], in the data set on MACH1™-T1® E. Coli, the “MICs of other organic acids” value is recorded as “unchanged”. As to `N[C@@H](Cc1ccccc1)C(=O)O` [Phenylalanine], the MIC in the data set with E. Coli BW25113 [3] (setting [6]) worked out at 32.1 g/L (≈ 194 mM). Besides, the “% Increase Over Control” value in the data set with E. Coli BW25113 [3] (anaerobic) was 7%. The “MIC increases (3-HP)” value with E. Coli Mach1-T1® worked out at 33%.

Regarding `N[C@@H](Cc1ccc(O)cc1)C(=O)O` [Tyrosine], the “MIC increases (3-HP)” value in the data set on E. Coli Mach1-T1® was 40%.

As to `CC[C@H](C)[C@H](N)C(=O)O` [Isoleucine (B)], the MIC in data set [1] was determined as 38 g/L (≈ 290 mM). Take `CC(=O)O` [acetic]: in the data set with MACH1™-T1® E. Coli, the “MICs of other organic acids” value is “unchanged”. For the compound `NCCCCN` [Putrescine], the MIC in the data set with E. Coli BW25113 [3] (setting [6]) stood at 35 g/L (≈ 397 mM). The “% Increase Over Control” value with E. Coli BW25113 [3] (anaerobic) came to 17%. Turning to `Cl.NC1CCSC1=O` (stereo not drawn) [homocysteine thiolactone hydrochloride], the “MIC increases (3-HP)” value with E. Coli Mach1-T1® was 60%.

For the compound `N[C@@H](CCS)C(=O)O` [Homocysteine], in the data set on E. Coli BW25113 [4], the “average MIC Assay Result (g/L 3-HP)” value worked out at 30 g/L 3-HP and the “% Increase Over Control” value is given as 9%. Moreover, the “% Increase Over Control” value in [1] (S288C, SD media, anaerobic, MIC with supplement vs no supplement) turned out to be 7%. Also, the MIC in data set [1] was determined as 40 g/L (≈ 296 mM).
